Reference: ChEMBL document CHEMBL5620409, “Discovery of tetrasubstituted thiophenes as Cisd2 activators: A potential novel therapeutic option in nonalcoholic fatty liver disease” (Eur J Med Chem, 2023)
Activity calls are given as the source filed them. The calls are words filed in the database; no cut-off is given here.

Tests used:
[1] = target: T1, CDGSH iron-sulfur domain-containing protein 2 (Homo sapiens, UniProt Q8N5K1); assay: Activation of Cisd2 (unknown origin) transfected in HEK293 cells incubated for 24 hrs by one-glo luciferase assay; assay type: cell-based
T1 sequence (Q8N5K1 whole entry): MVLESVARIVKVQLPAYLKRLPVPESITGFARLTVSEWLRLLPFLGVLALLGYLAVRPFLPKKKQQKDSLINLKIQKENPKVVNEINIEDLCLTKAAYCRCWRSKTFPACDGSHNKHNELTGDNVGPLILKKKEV

[2] = Metabolic stability in mouse liver microsomes assessed as parent compound remaining at 5 uM in presence of NADPH-generating system measured for 30 mins by LC/MS analysis; assay type: ADME, Microsome; conditions: read-out: Stability
[3] = Toxicity in wild type C57BL/6 mouse assessed as effect on AST level in serum at 20 mg/kg, po administered for 2 weeks; assay type: organism-based; conditions: in vivo, 336 h
Mus musculus [4] = assay: Anti-NAFLD activity in wild type C57BL/6 mouse assessed as fold increase in Cisd2 expression in liver at 20 mg/kg, po measured for 12 week by Western blot analysis; assay type: functional; conditions: time 12 weeks
Mus musculus [5] = assay: Anti-NAFLD activity in heterozygous hepatocyte-specific Cisd2 knockout C57BL/6 mouse assessed as reduction in ballooning degeneration of hepatocytes at 20 mg/kg, po measured for 2 weeks by H and E staining based analysis; assay type: functional, organism-based
[6] = Toxicity in heterozygous hepatocyte-specific Cisd2 knockout C57BL/6 mouse assessed as effect on GPT level in serum at 20 mg/kg, po administered for 2 weeks; assay type: organism-based; conditions: in vivo, 336 h
[7] = Toxicity in wild type C57BL/6 mouse assessed as effect on GPT level in serum at 20 mg/kg, po administered for 2 weeks; assay type: organism-based; conditions: in vivo, 336 h
[8] = Toxicity in heterozygous hepatocyte-specific Cisd2 knockout C57BL/6 mouse assessed as effect on AST level in serum at 20 mg/kg, po administered for 2 weeks; assay type: organism-based; conditions: in vivo, 336 h
Mus musculus [9] = assay: Anti-NAFLD activity in heterozygous hepatocyte-specific Cisd2 knockout C57BL/6 mouse assessed as fold increase in Cisd2 expression in liver at 20 mg/kg, po measured for 12 week by Western blot analysis; assay type: functional; conditions: time 12 weeks
[10] = Toxicity in heterozygous hepatocyte-specific Cisd2 knockout C57BL/6 mouse assessed as effect on ALT level in serum at 20 mg/kg, po administered for 2 weeks; assay type: organism-based; conditions: in vivo, 336 h
Mus musculus [11] = assay: Anti-NAFLD activity in heterozygous hepatocyte-specific Cisd2 knockout C57BL/6 mouse assessed as reduction in hepatic steatosis in liver at 20 mg/kg, po measured for 2 weeks by H and E staining based analysis; assay type: functional, organism-based
[12] = Toxicity in wild type C57BL/6 mouse assessed as effect on GOT level in serum at 20 mg/kg, po administered for 2 weeks; assay type: organism-based; conditions: in vivo, 336 h
[13] = Toxicity in wild type C57BL/6 mouse assessed as effect on ALT level in serum at 20 mg/kg, po administered for 2 weeks; assay type: organism-based; conditions: in vivo, 336 h
Mus musculus [14] = assay: Anti-NAFLD activity in wild type C57BL/6 mouse assessed as effect on triglyceride level in serum at 20 mg/kg, po measured for 12 week; assay type: functional, organism-based; conditions: time 12.0 weeks
[15] = Toxicity in heterozygous hepatocyte-specific Cisd2 knockout C57BL/6 mouse assessed as effect on body weight at 20 mg/kg, po measured for 2 weeks; assay type: organism-based; conditions: in vivo, 336 h
[16] = Toxicity in wild type C57BL/6 mouse assessed as change in liver histology at 20 mg/kg, po administered for 2 weeks; assay type: organism-based; conditions: in vivo, 336 h
[17] = Toxicity in wild type C57BL/6 mouse assessed as effect on CRE level in serum at 20 mg/kg, po administered for 2 weeks; assay type: organism-based; conditions: in vivo, 336 h
[18] = Toxicity in heterozygous hepatocyte-specific Cisd2 knockout C57BL/6 mouse assessed as effect on BUN level in serum at 20 mg/kg, po administered for 2 weeks; assay type: organism-based; conditions: in vivo, 336 h
Mus musculus [19] = assay: Anti-NAFLD activity in heterozygous hepatocyte-specific Cisd2 knockout C57BL/6 mouse assessed as reduction in accumulation of fat in liver at 20 mg/kg, po measured for 2 weeks by oil red-O staining based analysis; assay type: functional, organism-based
[20] = Toxicity in heterozygous hepatocyte-specific Cisd2 knockout C57BL/6 mouse assessed as effect on GOT level in serum at 20 mg/kg, po administered for 2 weeks; assay type: organism-based; conditions: in vivo, 336 h
[21] = Toxicity in heterozygous hepatocyte-specific Cisd2 knockout C57BL/6 mouse assessed as effect on CRE level in serum at 20 mg/kg, po administered for 2 weeks; assay type: organism-based; conditions: in vivo, 336 h
[22] = Toxicity in wild type C57BL/6 mouse assessed as food intake at 20 mg/kg, po measured for 5 consecutive days; assay type: organism-based; conditions: in vivo, 120 h, time 5 day
Mus musculus [23] = assay: Anti-NAFLD activity in heterozygous hepatocyte-specific Cisd2 knockout C57BL/6 mouse assessed as abnormal hepatic lipid accumulation in liver at 20 mg/kg, po measured for 2 weeks; assay type: functional, organism-based
[24] = Toxicity in wild type C57BL/6 mouse assessed as effect on body weight at 20 mg/kg, po measured for 2 weeks; assay type: organism-based; conditions: in vivo, 336 h
Mus musculus [25] = assay: Anti-NAFLD activity in heterozygous hepatocyte-specific Cisd2 knockout C57BL/6 mouse assessed as effect on triglyceride level in serum at 20 mg/kg, po measured for 12 week; assay type: functional, organism-based; conditions: time 12.0 weeks
[26] = Toxicity in wild type C57BL/6 mouse assessed as effect on BUN level in serum at 20 mg/kg, po administered for 2 weeks; assay type: organism-based; conditions: in vivo, 336 h

## COC(=O)c1cc(C(=O)Nc2ccc(C)cc2C)sc1N
[1]
  EC50: 2080 nM

## COC(=O)c1c(NC(C)=O)sc(C(=O)Nc2ccc(C)cc2C)c1C
[1]
  EC50: 4440 nM

## Cc1ccc(NC(=O)c2sc(N)c(C(=O)CO)c2C)c(C)c1
[1]
  EC50: 809 nM

## COC(=O)c1c(N)sc(C(=O)Nc2ccc(OC)cc2)c1C
[1]
  EC50: 12 nM
[2]
  remaining at 0.5 h, 5 µM: 73.6%

## Cc1ccc(NC(=O)c2sc(N)c(C(=O)OCc3ccccc3)c2C)c(C)c1
[1]
  EC50: > 10000 nM

## COC(=O)c1c(N)sc(C(=O)Nc2ccccc2OC)c1C
[1]
  EC50: 3070 nM

## COC(=O)c1c(N)sc(C(=O)Nc2c(C)cc(C)cc2C)c1C
[1]
  EC50: 1700 nM

## COC(=O)c1c(N)sc(C(=O)Nc2cccc(OC)c2)c1C
[1]
  EC50: 23 nM
[2]
  remaining at 0.5 h, 5 µM: 59.2%

## Cc1ccc(NC(=O)c2sc(N)c(C(=O)NCC#N)c2C)c(C)c1
[1]
  EC50: 1590 nM

## Cc1ccc(NC(=O)c2sc(N)c(C(=O)OC(C)C)c2C)c(C)c1
[1]
  EC50: 1520 nM

## Cc1ccc(NC(=O)c2sc(N)c(C#N)c2C)c(C)c1
[1]
  EC50: 2670 nM

## COC(=O)c1c(N)sc(C(=O)Nc2ccccc2)c1C
[1]
  EC50: 95 nM
[2]
  remaining at 0.5 h, 5 µM: 63.5%

## COC(=O)c1c(N)sc(C(=O)Nc2cc(OC)c(OC)c(OC)c2)c1C
[1]
  EC50: 2180 nM

## CC(=O)c1c(N)sc(C(=O)Nc2ccc(F)cc2)c1C
[1]
  EC50: 160 nM
[2]
  remaining at 0.5 h, 5 µM: 49.2%

## COC(=O)c1c(N)sc(C(=O)Nc2ccc(O)cc2)c1C
[3]
  Activity: Non-Toxic
Mus musculus [4]
  fold change (FC): 1.3
Mus musculus [5]
  Activity: Active
[6]
  Activity: Non-Toxic
[7]
  Activity: Non-Toxic
[8]
  Activity: Non-Toxic
Mus musculus [9]
  fold change (FC): 2
[10]
  Activity: Non-Toxic
Mus musculus [11]
  Activity: Active
[1]
  EC50: 191 nM
[12]
  Activity: Non-Toxic
[13]
  Activity: Non-Toxic
Mus musculus [14]
  Activity: Active
[2]
  remaining at 0.5 h, 5 µM: 91.8%
[15]
  Activity: Non-Toxic
[16]
  Activity: Non-Toxic
[17]
  Activity: Non-Toxic
[18]
  Activity: Non-Toxic
Mus musculus [19]
  Activity: Active
[20]
  Activity: Non-Toxic
[21]
  Activity: Non-Toxic
[22]
  Activity: Non-Toxic
Mus musculus [23]
  Activity: Active
[24]
  Activity: Non-Toxic
Mus musculus [25]
  Activity: Active
[26]
  Activity: Non-Toxic

## CC(=O)c1c(N)sc(C(=O)Nc2ccccc2)c1C
[1]
  EC50: 553 nM

## COC(=O)c1c(N)sc(C(=O)Nc2cccnc2)c1C
[1]
  EC50: 661 nM

## Cc1ccc(NC(=O)c2sc(N)c(C(N)=O)c2C)c(C)c1
[1]
  EC50: 979 nM

## COC(=O)c1c(N)sc(C(=O)Nc2ccc(F)cc2)c1C
[3]
  Activity: Non-Toxic
Mus musculus [4]
  fold change (FC): 1.3
Mus musculus [5]
  Activity: Active
[6]
  Activity: Non-Toxic
[7]
  Activity: Non-Toxic
[8]
  Activity: Non-Toxic
Mus musculus [9]
  fold change (FC): 2
[10]
  Activity: Non-Toxic
Mus musculus [11]
  Activity: Active
[1]
  EC50: 34 nM
[12]
  Activity: Non-Toxic
[13]
  Activity: Non-Toxic
Mus musculus [14]
  Activity: Active
[2]
  remaining at 0.5 h, 5 µM: 84.9%
[15]
  Activity: Non-Toxic
[16]
  Activity: Non-Toxic
[17]
  Activity: Non-Toxic
[18]
  Activity: Non-Toxic
Mus musculus [19]
  Activity: Active
[20]
  Activity: Non-Toxic
[21]
  Activity: Non-Toxic
[22]
  Activity: Non-Toxic
Mus musculus [23]
  Activity: Active
[24]
  Activity: Non-Toxic
Mus musculus [25]
  Activity: Active
[26]
  Activity: Non-Toxic

## CC(=O)c1c(N)sc(C(=O)Nc2ccc(C)cc2C)c1C
[1]
  EC50: 164 nM
[2]
  remaining at 0.5 h, 5 µM: 0%

## Cc1ccc(NC(=O)c2sc(N)c(C(=O)OC(C)(C)C)c2C)c(C)c1
[1]
  EC50: 1340 nM

## CNc1sc(C(=O)Nc2ccc(C)cc2C)c(C)c1C(=O)OC
[1]
  EC50: > 10000 nM

## COC(=O)c1c(N)sc(C(=O)Nc2ccccc2C)c1C
[1]
  EC50: 233 nM
[2]
  remaining at 0.5 h, 5 µM: 53.3%

## COC(=O)c1c(N)sc(C(=O)Nc2ccc(N(C)C)cc2)c1C
[1]
  EC50: 35 nM
[2]
  remaining at 0.5 h, 5 µM: 54.7%

## CCOC(=O)c1c(N)sc(C(=O)Nc2ccc(C)cc2C)c1C
[1]
  EC50: 197 nM
[2]
  remaining at 0.5 h, 5 µM: 60.6%

## COC(=O)c1c(N)sc(C(=O)Nc2ccc(C)cc2)c1C
[1]
  EC50: 10 nM
[2]
  remaining at 0.5 h, 5 µM: 73.2%

## Cc1ccc(NC(=O)c2sc(N)c(C(=O)O)c2C)c(C)c1
[1]
  EC50: 296 nM

## COC(=O)c1sccc1NC(=O)c1sc(N)c(C(=O)OC)c1C
[1]
  EC50: > 10000 nM

## COC(=O)c1c(N)sc(C(=O)Nc2nc3ccccc3s2)c1C
[1]
  EC50: > 10000 nM

## COC(=O)c1c(N)sc(C(=O)Nc2cccc(C)c2)c1C
[1]
  EC50: 35 nM
[2]
  remaining at 0.5 h, 5 µM: 53.8%

## COC(=O)c1c(N)sc(C(=O)Nc2nccs2)c1C
[1]
  EC50: 153 nM
[2]
  remaining at 0.5 h, 5 µM: 44.5%

## COC(=O)c1c(N)sc(C(=O)Nc2ccc(C(F)(F)F)cc2)c1C
[1]
  EC50: 252 nM

## COC(=O)c1c(N)sc(C(=O)Nc2ccc(C)cc2C)c1C
[1]
  EC50: 46 nM
[2]
  remaining at 0.5 h, 5 µM: 27.6%

## COC(=O)c1c(N)sc(C(=O)Nc2ccc(C#N)cc2)c1C
[1]
  EC50: 82 nM
[2]
  remaining at 0.5 h, 5 µM: 83.7%
